{"source": "patent US11001591B2", "about": "“TRAF 6 inhibitors” (HELMHOLTZ ZENTRUM MUENCHEN—DEUTSCHES FORSCHUNGSZENTRUM FÜR …, priority 2016, dated 2021)", "key": {"[1]": {"experiment": "Pharmacokinetic studies IV, PO, IP", "type": "in vivo", "conditions": "for half-life: read-out: in vivo half-life in circulation", "protocol": "(§1) All ADME (plasma stability, plasma protein binding, microsomal stability, Log D, Caco-2 assay, CYP450 inhibition and hERG predictor assay) as well as pharmacokinetic studies (Tmax, Cmax, AUC0-240 min, Mean Residence Time, Elimination half life, Elimination rate constant, Volume of Distribution and Clearance) of C25-140 (compound 3) were conducted by Bienta Enamine Biology Services of Bienta/Enamine Ltd.\nThe inventors also tested the pharmacokinetics (PK) of C25-140 after intravenous (IV), peroral (PO) and intraperitoneal (IP) injection of each 10 mg/kg compound. All the analyzed data are summarized in FIG. 9B and the concentration/time-course graph for IP administration is shown in FIG. 9C."}, "[2]": {"system": "TRAF6 auto-ubiquitination", "experiment": "Immunoprecipitation of TRAF6, endogenous ubiquitination in MEF cells", "type": "cell-based, mouse", "protocol": "2.5×10^6 MEF cells were seeded, treated with compound for 6 hours and stimulated with IL-1β (3.5 ng/mL) for 10 minutes. Cells were lysed in Co-IP lysis buffer containing 1% SDS to eliminate all cellular interactions. After cell lysis and removal of input samples, the samples were diluted to 0.1% SDS and incubated with 5 μL TRAF6 antibody EP591Y (Abcam) and immunoprecipitated with Protein-G-Sepharose beads. After washing of the beads in Co-IP wash buffer, TRAF6 protein was eluted and levels of TRAF6 ubiquitination were detected by Western Blot analysis."}, "TRAF6-Ubc13 binding": {"molecular_target": "T1, TRAF6-Ubc13 binding (Homo sapiens, UniProt Q9Y4K3)", "T1 construct": "RING-Zincfinger1 (RZ1) domain (residues 50-159) of TRAF6 wildtype; expressed in transfected cells; host or cells: HEK 293T", "T1 sequence (Q9Y4K3 50-159)": "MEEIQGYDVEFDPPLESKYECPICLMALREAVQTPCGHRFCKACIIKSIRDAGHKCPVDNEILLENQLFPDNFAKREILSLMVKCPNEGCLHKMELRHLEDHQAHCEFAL", "experiment": "Co-immunoprecipitation of HA-TRAF6 and endogenous Ubc13 in HEK 293T cells", "type": "cell-based", "conditions": "listed as C25-140", "protocol": "To study the interaction of TRAF6 and Ubc13 in cells, 1×10^6 293T cells were seeded and after 18 hours cells were transfected with lpg pEF-HA empty or pEF-HA-TRAF6 RZ1 plasmid using the X-tremeGENE HP DNA transfection reagent (Roche). 6 hours upon transfection, cells were treated with compound or DMSO. After 42 hours further incubation, cells were harvested in Co-IP lysis buffer and HA-TRAF6 was immunoprecipitated with anti-HA affinity matrix (Roche). Binding of Ubc13 to TRAF6 was examined in Western Blot analysis."}, "Microsomal stability": {"experiment": "Microsomal stability", "type": "in vitro ADME", "protocol": "as §1"}, "hERG": {"molecular_target": "T2, hERG (Homo sapiens, UniProt Q12809)", "T2 construct": "Bienta/Enamine Ltd. (contract lab)", "T2 sequence (Q12809 whole entry)": "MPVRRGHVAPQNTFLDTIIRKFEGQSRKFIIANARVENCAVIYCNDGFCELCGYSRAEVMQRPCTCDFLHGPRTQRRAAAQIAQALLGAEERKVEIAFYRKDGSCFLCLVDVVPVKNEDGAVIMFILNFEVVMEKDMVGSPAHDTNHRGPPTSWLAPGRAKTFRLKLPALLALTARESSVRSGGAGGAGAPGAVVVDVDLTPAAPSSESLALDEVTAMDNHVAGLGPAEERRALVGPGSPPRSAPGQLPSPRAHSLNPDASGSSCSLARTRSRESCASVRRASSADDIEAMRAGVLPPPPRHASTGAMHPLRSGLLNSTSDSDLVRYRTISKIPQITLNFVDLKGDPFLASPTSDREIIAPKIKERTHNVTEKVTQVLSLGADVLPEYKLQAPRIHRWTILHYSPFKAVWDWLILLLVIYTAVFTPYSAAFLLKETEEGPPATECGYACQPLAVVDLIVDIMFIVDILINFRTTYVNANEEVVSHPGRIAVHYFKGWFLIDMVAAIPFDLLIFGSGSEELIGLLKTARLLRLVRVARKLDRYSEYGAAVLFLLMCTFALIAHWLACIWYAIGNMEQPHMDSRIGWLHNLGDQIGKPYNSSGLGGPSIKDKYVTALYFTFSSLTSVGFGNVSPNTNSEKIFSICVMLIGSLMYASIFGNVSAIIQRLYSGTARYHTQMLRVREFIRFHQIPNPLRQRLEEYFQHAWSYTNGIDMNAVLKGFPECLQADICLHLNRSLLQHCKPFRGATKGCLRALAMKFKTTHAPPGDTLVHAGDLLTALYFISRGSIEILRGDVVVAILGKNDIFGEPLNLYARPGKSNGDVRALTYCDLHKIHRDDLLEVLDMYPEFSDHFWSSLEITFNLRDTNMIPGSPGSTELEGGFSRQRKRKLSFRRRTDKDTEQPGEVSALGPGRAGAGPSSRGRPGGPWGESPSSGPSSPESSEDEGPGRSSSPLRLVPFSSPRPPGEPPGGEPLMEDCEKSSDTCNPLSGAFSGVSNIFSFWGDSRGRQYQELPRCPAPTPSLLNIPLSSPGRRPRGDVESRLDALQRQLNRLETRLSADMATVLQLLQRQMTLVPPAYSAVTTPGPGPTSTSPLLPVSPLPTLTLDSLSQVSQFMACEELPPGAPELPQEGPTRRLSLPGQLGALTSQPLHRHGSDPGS", "experiment": "hERG predictor assay", "type": "in vitro ADME", "protocol": "as §1"}, "[3]": {"system": "primary naïve CD4+ T-cells", "experiment": "IL-2 in primary murine CD4+ T-cells", "type": "cell-based, mouse", "conditions": "CD3/CD28 stimulation", "protocol": "For MEF cells, 1.2×10^5 cells per sample were seeded, treated with compound for 6 hours and stimulated with either IL-1β or TNFα for 60 minutes. […] RNA was isolated according to the manufacturer's protocol of the Qiagen RNeasy Kit (MEF cells) or the STRATEC INVITRAP® SPIN UNIVERSAL RNA MINI KIT (Jurkat T-cells). The isolation of mRNA from […] white adipose tissue from DIO mice was performed using TRIzol® Reagent according to manufacturer's instruction. To clear the isolated RNA from genomic DNA, samples (up to 5 μg RNA) were treated with RQ1 RNase-Free DNaseI (Promega) as described in the technical manual. […] For quantification of cDNA in the samples, the LightCylcer480 (Roche) and the KAPA SYBR FAST qPCR Kit were used. For relative quantification, the ΔΔCp method first described by Pfaffl (Pfaffl, M. W., A new mathematical model for relative quantification in real-time RT-PCR. Nucleic Acids Res, 2001. 29(9): p. e45) was applied. […]\nFor measurement of cytokine secretion, 2×10^5 Jurkat T-cells or primary CD4^+ T-cells or human PBMCs per sample were seeded, treated with compound for 6 hours and stimulated as indicated. 20 hours after stimulation, supernatants were harvested and analyzed with the IL-2, IL-1β and TNFα Ready-Set-Go! […]"}, "RNF4": {"molecular_target": "T3, RNF4 (Homo sapiens, UniProt P78317)", "T3 construct": "purchased Boston Biochem one of K-102, K-260, K-200B, K-220, K-240, K-270", "T3 sequence (P78317 whole entry, species assumed)": "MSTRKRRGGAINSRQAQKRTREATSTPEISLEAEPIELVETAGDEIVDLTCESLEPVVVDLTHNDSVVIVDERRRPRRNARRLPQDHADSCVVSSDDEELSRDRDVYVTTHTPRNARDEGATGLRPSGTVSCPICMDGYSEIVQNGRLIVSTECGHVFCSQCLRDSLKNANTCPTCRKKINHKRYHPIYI", "experiment": "In vitro ubiquitination assay, RNF4", "type": "biochemical", "protocol": "For analysis of clAP1, MDM2, TRIM63, RNF4, ITCH and E6AP mediated poly-ubiquitination, the respective ubiquitin ligase kit from Boston Biochem (K-102, K-260, K-200B, K-220, K-240 and K-270) was used. Here, reaction buffer, E1, E2 and E3 enzyme (and p53 substrate in case of MDM2) were mixed and pre-incubated with compound or DMSO for 5 minutes at room temperature before adding Mg^2+-ATP and mono-ubiquitin for reaction start. Ubiquitination was visualized by Western Blot analyses."}, "p-IκBα (Ser32/36)": {"system": "p-IκBα (Ser32/36)", "experiment": "ALPHASurefire p-IκBα in IL-1β stimulated MEF cells", "type": "cell-based, mouse", "conditions": "compared with C25, C25-189, C25-167; FIG. 1C", "protocol": "In order to detect protein levels of p-IκBα (Ser32/36) as well as total IκBα, 1×10^4 MEF cells were seeded in 96-well plates, treated with compound for 6 hours and stimulated with 1 ng/ml IL-1β for 7 minutes. The p-IκBα and total IκBα protein levels were analyzed using the ALPHASurefire kits (PerkinElmer) following the manufacturer's instruction. The general 2-plate protocol was conducted."}}, "note": "Entries after “also recorded” stand apart in the source; their conditions may differ. Where two headings read alike, the source gives them in different places.", "data": [{"smiles": "Cc1nn(-c2ccc3nnc(C)n3n2)c(C)c1CCC(=O)N1CCC(Cc2ccccc2)CC1", "note": "[Compound 3, 1-(4-benzylpiperidin-1-yl)-3-(3,5-dimethyl-1-(3-methyl-[1,2,4]triazolo[4,3-b]pyridazin-6-yl)-1H-pyrazol-4-yl)propan-1-one]", "values": [{"measurement": "adverse effects on animals during PK studies", "setting": "[1]; 10 mg/kg", "result": "no obvious adverse effects"}, {"measurement": "distribution phase", "setting": "[1]; IV, PO, IP 10 mg/kg", "result": "rapid initial distribution phase"}, {"measurement": "half-life", "setting": "[1]; in vivo, iv, 10 mg/kg", "result": 1.33, "unit": "h"}, {"measurement": "half-life", "setting": "[1]; in vivo, po, 10 mg/kg", "result": 2.12, "unit": "h"}, {"measurement": "bioavailability", "setting": "[1]; in vivo, po, calculated, 10 mg/kg", "result": "~45", "unit": "%"}, {"measurement": "half-life", "setting": "[1]; in vivo, IP administration, 10 mg/kg", "result": 3.07, "unit": "h"}, {"measurement": "IL-1β-induced TRAF6 auto-ubiquitination", "setting": "[2]", "result": "reduced"}, {"measurement": "interaction of endogenous Ubc13 with ectopically expressed HA-TRAF6", "setting": "TRAF6-Ubc13 binding", "result": "reduced interaction; also recorded: most active analogs"}, {"measurement": "microsomal stability", "setting": "Microsomal stability", "result": "stable"}, {"measurement": "hERG inhibition", "setting": "hERG", "result": "does not very much inhibit hERG"}, {"measurement": "IL-2 mRNA expression", "setting": "[3]", "result": "impaired"}, {"measurement": "IL-2 protein secretion", "setting": "[3]", "result": "impaired"}, {"measurement": "RNF4 auto-ubiquitination", "setting": "RNF4", "result": "not affected"}, {"measurement": "p-IκBα protein levels, ALPHASurefire", "setting": "p-IκBα (Ser32/36)", "result": "more active"}]}]}
